Target: Potassium voltage-gated channel subfamily A member 5 (Homo sapiens, UniProt P22460)
Assay: Inhibition of Kv1.5 (unknown origin)
Settings: not given

Sequence of Potassium voltage-gated channel subfamily A member 5 (P22460 whole entry): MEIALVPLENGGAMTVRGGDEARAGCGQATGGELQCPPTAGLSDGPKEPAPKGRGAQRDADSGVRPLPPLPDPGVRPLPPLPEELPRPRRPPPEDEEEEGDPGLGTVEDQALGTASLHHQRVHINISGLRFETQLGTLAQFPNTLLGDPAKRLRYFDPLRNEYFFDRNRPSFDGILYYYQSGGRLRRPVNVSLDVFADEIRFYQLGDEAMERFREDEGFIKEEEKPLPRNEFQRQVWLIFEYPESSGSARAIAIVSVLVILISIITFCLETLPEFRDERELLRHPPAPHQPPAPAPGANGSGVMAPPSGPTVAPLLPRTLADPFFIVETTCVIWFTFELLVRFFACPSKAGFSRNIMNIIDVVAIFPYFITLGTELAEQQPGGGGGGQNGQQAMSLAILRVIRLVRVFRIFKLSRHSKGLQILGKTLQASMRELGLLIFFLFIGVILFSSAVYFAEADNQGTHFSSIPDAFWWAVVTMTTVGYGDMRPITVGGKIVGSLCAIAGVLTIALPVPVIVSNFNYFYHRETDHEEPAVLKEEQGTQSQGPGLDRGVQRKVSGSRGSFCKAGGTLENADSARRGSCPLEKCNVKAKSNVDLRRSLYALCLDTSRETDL

Row | Compound | IC50
1 | OC(Cc1cccnc1-c1cc(Cl)cc(Cl)c1)(c1cccnc1)c1cccnc1 | 84 nM
2 | CN(C)C(=O)c1cccc(-c2ncccc2CC(c2ccnc(N)n2)c2cccnc2F)c1 (racemic) | 161 nM
3 | OC(c1cccnc1-c1cccc(Cl)c1)C(c1cccnc1)c1ncco1 (mixture of isomers) | 276 nM
4 | N#Cc1cccc(-c2cc(F)ccc2CC(c2cccnc2)c2cccnc2)c1 | 136 nM
5 | CC(=O)NC(c1ccccc1-c1cc(Cl)cc(Cl)c1)C(c1cccnc1)c1cccnc1 (stereo unspecified) | 148 nM
6 | Nc1cccc(C(Cc2cccnc2-c2cccc(C(F)(F)F)c2)c2cccnc2)n1 (stereo unspecified) | 56 nM
7 | Fc1ccc(CC(c2cccnc2)c2cccnc2)c(C2CC2)c1 | > 10000 nM
8 | COc1cccc(-c2ncccc2CC(c2cccnc2)c2cccnc2)c1 | 41 nM
9 | Clc1ccccc1-c1ncccc1CC(c1cccnc1)c1cccnc1 | 23 nM
10 | Fc1ccc(CC(c2cccnc2)c2cccnc2)c(-c2cccc(C(F)(F)F)c2)c1 | 1280 nM
11 | OC(c1cccnc1-c1cc(Cl)cc(Cl)c1)C(c1cccnc1)c1ccccn1 (mixture of isomers) | 233 nM
12 | CS(=O)(=O)Nc1cccc(-c2cc(F)ccc2CC(c2cccnc2)c2cccnc2)c1 | 579 nM
13 | Nc1cccc(C(c2cccnc2)C(O)c2cccnc2-c2cc(Cl)cc(Cl)c2)n1 (mixture of isomers) | 153 nM
14 | CN(C)C(=O)c1cccc(-c2ccccc2CC(c2cccnc2)c2cccnc2)c1 | 64 nM
15 | OC(Cc1cccnc1-c1cccc(C(F)(F)F)c1)(c1cccnc1F)c1cccnc1F | 195 nM
16 | Cc1cc(F)ccc1-c1ccccc1C(C#N)C(c1cccnc1)c1cccnc1 (stereo unspecified) | 137 nM
17 | OC(c1cccnc1-c1cccc(Cl)c1)C(c1cccnc1)c1cccnc1 (racemic) | 283 nM

Target: KCNQ1/KCNE1 (IKs) (Homo sapiens, UniProt P15382+P51787)
Assay: Inhibition of human KCNQ1/KCNE1 expressed in HEK293 cells assessed as reduction in slowly activating delayed rectifier cardiac potassium current at 10 uM by patch clamp electrophysiology method
Format: cell-based
Settings: HEK293 cells expressing human KCNQ1/KCNE1

Sequence of KCNQ1/KCNE1 (IKs) (P51787 whole entry): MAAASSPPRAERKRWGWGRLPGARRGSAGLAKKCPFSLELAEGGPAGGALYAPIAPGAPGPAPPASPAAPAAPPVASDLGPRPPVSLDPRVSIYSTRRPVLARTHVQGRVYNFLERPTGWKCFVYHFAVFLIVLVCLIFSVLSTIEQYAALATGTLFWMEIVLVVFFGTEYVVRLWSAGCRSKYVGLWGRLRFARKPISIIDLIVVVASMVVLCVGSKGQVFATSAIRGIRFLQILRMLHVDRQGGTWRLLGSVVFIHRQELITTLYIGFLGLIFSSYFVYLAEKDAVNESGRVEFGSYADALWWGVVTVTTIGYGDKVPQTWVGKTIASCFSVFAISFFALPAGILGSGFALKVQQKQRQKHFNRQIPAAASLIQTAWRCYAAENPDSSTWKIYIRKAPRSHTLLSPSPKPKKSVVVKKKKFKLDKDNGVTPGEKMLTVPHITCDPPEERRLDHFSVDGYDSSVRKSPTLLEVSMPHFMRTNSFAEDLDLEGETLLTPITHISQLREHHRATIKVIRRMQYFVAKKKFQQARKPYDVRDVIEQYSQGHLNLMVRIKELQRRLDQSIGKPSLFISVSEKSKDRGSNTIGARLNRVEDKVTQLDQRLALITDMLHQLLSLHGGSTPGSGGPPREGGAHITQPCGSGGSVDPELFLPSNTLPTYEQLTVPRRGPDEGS

Row | Compound | inhibition at 10 µM
18 | OC(Cc1cccnc1-c1cc(Cl)cc(Cl)c1)(c1cccnc1)c1cccnc1 | 10%
19 | CN(C)C(=O)c1cccc(-c2ncccc2CC(c2ccnc(N)n2)c2cccnc2F)c1 (racemic) | 61%
20 | OC(c1cccnc1-c1cccc(Cl)c1)C(c1cccnc1)c1ncco1 (mixture of isomers) | 16%
21 | N#Cc1cccc(-c2cc(F)ccc2CC(c2cccnc2)c2cccnc2)c1 | 47%
22 | CC(=O)NC(c1ccccc1-c1cc(Cl)cc(Cl)c1)C(c1cccnc1)c1cccnc1 (stereo unspecified) | 0.1%
23 | Nc1cccc(C(Cc2cccnc2-c2cccc(C(F)(F)F)c2)c2cccnc2)n1 (stereo unspecified) | 42%
24 | COc1cccc(-c2ncccc2CC(c2cccnc2)c2cccnc2)c1 | 15%
25 | Clc1ccccc1-c1ncccc1CC(c1cccnc1)c1cccnc1 | 24%
26 | CS(=O)(=O)Nc1cccc(-c2cc(F)ccc2CC(c2cccnc2)c2cccnc2)c1 | 42%
27 | Nc1cccc(C(c2cccnc2)C(O)c2cccnc2-c2cc(Cl)cc(Cl)c2)n1 (mixture of isomers) | 20%
28 | CN(C)C(=O)c1cccc(-c2ccccc2CC(c2cccnc2)c2cccnc2)c1 | 26%
29 | OC(Cc1cccnc1-c1cccc(C(F)(F)F)c1)(c1cccnc1F)c1cccnc1F | 16%
30 | Cc1cc(F)ccc1-c1ccccc1C(C#N)C(c1cccnc1)c1cccnc1 (stereo unspecified) | 9.2%
31 | OC(c1cccnc1-c1cccc(Cl)c1)C(c1cccnc1)c1cccnc1 (racemic) | 4.1%

Target: Voltage-gated inwardly rectifying potassium channel KCNH2 (Homo sapiens, UniProt Q12809)
Assay: Displacement of [3H]-MK499 from human ERG IKr channel expressed in HEK293 cell membranes
Settings: not given

Sequence of Voltage-gated inwardly rectifying potassium channel KCNH2 (Q12809 whole entry): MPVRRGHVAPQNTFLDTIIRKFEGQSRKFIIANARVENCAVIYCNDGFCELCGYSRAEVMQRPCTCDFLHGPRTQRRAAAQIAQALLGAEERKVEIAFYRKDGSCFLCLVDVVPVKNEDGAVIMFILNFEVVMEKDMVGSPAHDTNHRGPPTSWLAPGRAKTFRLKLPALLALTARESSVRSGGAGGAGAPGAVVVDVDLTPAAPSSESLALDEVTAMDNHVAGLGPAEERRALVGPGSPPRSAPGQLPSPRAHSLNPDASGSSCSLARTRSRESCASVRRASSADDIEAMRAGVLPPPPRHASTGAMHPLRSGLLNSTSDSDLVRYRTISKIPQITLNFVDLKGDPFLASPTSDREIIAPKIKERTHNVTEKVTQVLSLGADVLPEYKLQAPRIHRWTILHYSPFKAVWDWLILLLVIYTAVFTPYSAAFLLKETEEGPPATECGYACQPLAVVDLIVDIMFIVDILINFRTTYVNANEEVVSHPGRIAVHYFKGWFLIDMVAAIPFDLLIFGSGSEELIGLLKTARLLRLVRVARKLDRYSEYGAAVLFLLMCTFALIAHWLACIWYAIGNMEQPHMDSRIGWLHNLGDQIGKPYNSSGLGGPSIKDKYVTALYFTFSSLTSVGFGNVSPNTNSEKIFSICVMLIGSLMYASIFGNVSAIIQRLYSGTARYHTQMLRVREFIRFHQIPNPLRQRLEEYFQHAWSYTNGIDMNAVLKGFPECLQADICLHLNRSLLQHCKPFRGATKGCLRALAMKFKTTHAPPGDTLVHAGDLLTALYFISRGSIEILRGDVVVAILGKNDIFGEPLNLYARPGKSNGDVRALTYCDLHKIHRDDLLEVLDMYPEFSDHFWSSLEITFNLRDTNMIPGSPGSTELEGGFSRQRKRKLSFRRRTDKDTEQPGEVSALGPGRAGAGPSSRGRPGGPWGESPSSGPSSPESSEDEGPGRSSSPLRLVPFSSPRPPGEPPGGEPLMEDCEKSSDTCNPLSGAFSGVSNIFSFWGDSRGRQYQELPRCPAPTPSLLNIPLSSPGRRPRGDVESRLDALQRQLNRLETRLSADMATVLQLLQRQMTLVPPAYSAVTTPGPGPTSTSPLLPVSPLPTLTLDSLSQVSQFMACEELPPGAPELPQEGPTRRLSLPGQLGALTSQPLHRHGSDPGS

Row | Compound | IC50
32 | OC(Cc1cccnc1-c1cc(Cl)cc(Cl)c1)(c1cccnc1)c1cccnc1 | > 30000 nM
33 | CN(C)C(=O)c1cccc(-c2ncccc2CC(c2ccnc(N)n2)c2cccnc2F)c1 (racemic) | > 30000 nM
34 | N#Cc1cccc(-c2cc(F)ccc2CC(c2cccnc2)c2cccnc2)c1 | 10200 nM
35 | CC(=O)NC(c1ccccc1-c1cc(Cl)cc(Cl)c1)C(c1cccnc1)c1cccnc1 (stereo unspecified) | > 30000 nM
36 | Clc1ccccc1-c1ncccc1CC(c1cccnc1)c1cccnc1 | > 30000 nM
37 | Fc1ccc(CC(c2cccnc2)c2cccnc2)c(-c2cccc(C(F)(F)F)c2)c1 | 2230 nM
38 | OC(c1cccnc1-c1cc(Cl)cc(Cl)c1)C(c1cccnc1)c1ccccn1 (mixture of isomers) | > 30000 nM
39 | Nc1cccc(C(c2cccnc2)C(O)c2cccnc2-c2cc(Cl)cc(Cl)c2)n1 (mixture of isomers) | > 30000 nM
40 | OC(c1cccnc1-c1cccc(Cl)c1)C(c1cccnc1)c1cccnc1 (racemic) | > 30000 nM

Species: Homo sapiens
Assay: Substrate activity at human P-gp assessed as efflux ratio
Settings: not given

Row | Compound | Ratio
41 | OC(Cc1cccnc1-c1cc(Cl)cc(Cl)c1)(c1cccnc1)c1cccnc1 | 6.8
42 | N#Cc1cccc(-c2cc(F)ccc2CC(c2cccnc2)c2cccnc2)c1 | 0.9
43 | CC(=O)NC(c1ccccc1-c1cc(Cl)cc(Cl)c1)C(c1cccnc1)c1cccnc1 (stereo unspecified) | 51
44 | OC(c1cccnc1-c1cc(Cl)cc(Cl)c1)C(c1cccnc1)c1ccccn1 (mixture of isomers) | 1.1
45 | Nc1cccc(C(c2cccnc2)C(O)c2cccnc2-c2cc(Cl)cc(Cl)c2)n1 (mixture of isomers) | 3.4

Test system: not listed separately
Assay: Metabolic stability in human hepatocytes up to 3 hrs by mass spectrometry
Format: ADME, cell-based, Hepatocyte
Settings: not given

Row | Compound | Stability
46 | OC(Cc1cccnc1-c1cccc(C(F)(F)F)c1)(c1cccnc1F)c1cccnc1F | Stable
